Laboratory results published in ChEMBL document CHEMBL1201862, “PubChem BioAssay data set” (2004).
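Interpolation was linear, between the two tested concentrations surrounding the appropriate level; five concentrations were tested over 48 hours in 96-well plates. GI50 is the concentration that inhibits growth by half.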 Active and inactive are the calls of the source. No stated cut-off is given here; in the data, active = GI50 up to about 1.1 µM and inactive = higher.

Tests used:
Experiment in all cases: NCI tumour cell line growth inhibition, 48 h
SR = tested on: SR
NCI-H226 = tested on: NCI-H226
MDA-MB-435 = tested on: MDA-MB-435
HCT-116 = tested on: HCT-116
786-0 = tested on: 786-0
EKVX = tested on: EKVX
HOP-62 = tested on: HOP-62
A498 = tested on: A498
HCT-15 = tested on: HCT-15
MCF7 = tested on: MCF7
SK-MEL-2 = tested on: SK-MEL-2
OVCAR-8 = tested on: OVCAR-8
KM12 = tested on: KM12
RXF 393 = tested on: RXF 393
SK-MEL-28 = tested on: SK-MEL-28
UACC-62 = tested on: UACC-62
Hs-578T = tested on: Hs-578T
HT-29 = tested on: HT-29
IGROV-1 = tested on: IGROV-1
CAKI-1 = tested on: CAKI-1
SF-539 = tested on: SF-539
CCRF-CEM = tested on: CCRF-CEM
SK-OV-3 = tested on: SK-OV-3
A549 = tested on: A549
TK-10 = tested on: TK-10
MOLT-4 = tested on: MOLT-4
T47D = tested on: T47D
SNB-75 = tested on: SNB-75
U-251 = tested on: U-251
MDA-MB-231 = tested on: MDA-MB-231
UACC-257 = tested on: UACC-257
SNB-19 = tested on: SNB-19
MDA-N = tested on: MDA-N
SW-620 = tested on: SW-620
NCI-H460 = tested on: NCI-H460
Malme-3M = tested on: Malme-3M
PC-3 = tested on: PC-3
ACHN = tested on: ACHN
HCC 2998 = tested on: HCC 2998
RPMI-8226 = tested on: RPMI-8226
OVCAR-5 = tested on: OVCAR-5
K562 = tested on: K562
NCI-H522 = tested on: NCI-H522
OVCAR-3 = tested on: OVCAR-3
HOP-92 = tested on: HOP-92
LOX IMVI = tested on: LOX IMVI
SK-MEL-5 = tested on: SK-MEL-5
NCI/ADR-RES = tested on: NCI/ADR-RES
BT-549 = tested on: BT-549
HL-60 = tested on: HL-60
SN12C = tested on: SN12C
OVCAR-4 = tested on: OVCAR-4
UO-31 = tested on: UO-31
M14 = tested on: M14
SF-295 = tested on: SF-295
SF-268 = tested on: SF-268
NCI-H23 = tested on: NCI-H23
DU-145 = tested on: DU-145

## COc1cc(C2c3cc4c(cc3OC(N3CCOCC3)C2C)OCO4)cc(OC)c1OC (stereo not drawn)
SR
  GI50: 466 nM (active)
NCI-H226
  GI50: 2600 nM (inactive)
MDA-MB-435
  GI50: 179 nM (active)
HCT-116
  GI50: 650 nM (active)
786-0
  GI50: 3180 nM (inactive)
EKVX
  GI50: 15800 nM (inactive)
HOP-62
  GI50: 3630 nM (inactive)
A498
  GI50: 743 nM (active)
HCT-15
  GI50: 418 nM
MCF7
  GI50: 510 nM (active)
SK-MEL-2
  GI50: 2020 nM (inactive)
OVCAR-8
  GI50: 1620 nM (inactive)
KM12
  GI50: 367 nM (active)
RXF 393
  GI50: 282 nM (active)
SK-MEL-28
  GI50: 17200 nM (inactive)
UACC-62
  GI50: 537 nM (active)
Hs-578T
  GI50: 226 nM (active)
HT-29
  GI50: 237 nM (active)
IGROV-1
  GI50: 1310 nM (inactive)
CAKI-1
  GI50: 522 nM (active)
SF-539
  GI50: 462 nM (active)
CCRF-CEM
  GI50: 457 nM (active)
SK-OV-3
  GI50: 3270 nM (inactive)
A549
  GI50: 1560 nM (inactive)
TK-10
  GI50: 4420 nM (inactive)
MOLT-4
  GI50: 1090 nM (active)
T47D
  GI50: 323 nM (active)
SNB-75
  GI50: 5190 nM (inactive)
U-251
  GI50: 893 nM (active)
MDA-MB-231
  GI50: 2840 nM (inactive)
UACC-257
  GI50: 748 nM (active)
SNB-19
  GI50: 838 nM (active)
MDA-N
  GI50: 148 nM (active)
SW-620
  GI50: 590 nM (active)
NCI-H460
  GI50: 1340 nM (inactive)
Malme-3M
  GI50: 3790 nM (inactive)
PC-3
  GI50: 1190 nM (inactive)
ACHN
  GI50: 3850 nM (inactive)
HCC 2998
  GI50: 1230 nM (inactive)
RPMI-8226
  GI50: 778 nM (active)
OVCAR-5
  GI50: 3680 nM (inactive)
K562
  GI50: 397 nM (active)
NCI-H522
  GI50: 614 nM (active)
OVCAR-3
  GI50: 589 nM (active)
HOP-92
  GI50: 700 nM (active)
LOX IMVI
  GI50: 1570 nM (inactive)
SK-MEL-5
  GI50: 378 nM (active)
NCI/ADR-RES
  GI50: 335 nM (active)
BT-549
  GI50: 4290 nM (inactive)
HL-60
  GI50: 412 nM (active)
SN12C
  GI50: 4180 nM (inactive)
OVCAR-4
  GI50: > 23700 nM (inactive)
UO-31
  GI50: 1860 nM (inactive)
M14
  GI50: 708 nM (active)
SF-295
  GI50: 519 nM (active)
SF-268
  GI50: 10500 nM (inactive)
NCI-H23
  GI50: 1380 nM (inactive)
DU-145
  GI50: 368 nM (active)
